These are literature values, as cited in patent US10010080B2, “Process for the production of partially polymerized antimicrobial silanol quaternary ammonium compounds” (Indusco, Ltd., priority 2015, dated 2018).

The conditions of the series: Dow Corning material safety data sheet.

As for `CO[Si](CCCCl)(OC)OC` [CPTMS, chloropropyptrimethoxy silane], the “time weighted average (TWA) for human exposure” value is recorded as 0.1 part per million.
